Results from US5977169A, “Substituted tetronic acids useful for treating HIV and other retroviruses” (priority 1997, dated 1999).
Square brackets hold non-standard residues; d marks the D form. Peptide text beside a SMILES is read from it. * marks the point of attachment. Sta = CC(C)C[C@H](N)[C@@H](O)CC(=O)O; Isovaleryl = CC(C)CC(=O)*

What was measured:
[1] = test system: HIV-1IIIB; assay: Inhibition of retroviral replication in human T-cell lines, e.g., MT4 and H9, infected with HIV-1IIIB; format: cell-based
[2] = target: T1, HIV-1 protease (Human immunodeficiency virus type 1 group M subtype B, UniProt P04585); assay: In vitro HIV protease inhibitory assay (fluorescently labeled substrate, avidin-polystyrene particles); format: biochemical; conditions: for inhibition at 3.3 µM: HIV-1 dose 3.3 μM; for inhibition at 10 µM: HIV-1 dose 10.0 μM; for inhibition at 30 µM: HIV-1 dose 30.0 μM
T1 construct: The protease (or proteinase) enzyme, consisting of only 99 amino acids
In short: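 Biotinylated, FITC-labelled peptide substrate cleaved by HIV-1 protease for 1 h at room temperature in the dark, in 0.1 M sodium acetate pH 5.5 with 1.0 M NaCl and 0.05% NP-40. Product separated from substrate with avidin-polystyrene beads and filtration; fluorescence read as percent inhibition at stated compound concentrations.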

[3] = test system: HIV-I protease; conditions: literature; cited from earlier work
[4] = test system: viral reverse transcriptase; conditions: literature; cited from earlier work

| inhibition at 3.3 µM [2] | inhibition at 10 µM [2] | inhibition at 30 µM [2] | Structure (SMILES) | inhibition of retroviral replication [1] | inhibition of HIV-I protease [3] | inhibition of viral reverse transcriptase [4] |
| --- | --- | --- | --- | --- | --- | --- |
| 113% | 111% | 119% | CCCC1(CCC)OC(=O)C(C(c2cccc(NS(=O)(=O)c3ccc(C#N)cc3)c2)C2CC2)=C1O (stereo not shown) [IX-14] | found to inhibit retroviral replication |  |  |
| 108% | 111% | 108% | CCCC1(CCC)OC(=O)C(C(c2cccc(NS(=O)(=O)c3cn(C)cn3)c2)C2CC2)=C1O (stereo not shown) [IX-17] | found to inhibit retroviral replication |  |  |
|  |  |  | CC(C)CC(=O)N[C@H](C(=O)N[C@H](C(=O)N[C@@H](CC(C)C)[C@@H](O)CC(=O)N[C@@H](C)C(=O)N[C@@H](CC(C)C)[C@@H](O)CC(=O)O)C(C)C)C(C)C [Pepstatin A] (Isovaleryl-VV[Sta]A[Sta]-OH) |  | disclosed as an inhibitor of HIV-I protease |  |
|  |  |  | Cc1cn([C@H]2C[C@H](N=[N+]=[N-])[C@@H](CO)O2)c(=O)[nH]c1=O [AZT, 3-azido-3-deoxythymidine] |  |  | known inhibitor of viral reverse transcriptase |
